Data set [1] in a line: Pharmacokinetic assay after repeated oral administration. Type of data set: in vivo, B-hPD-1/hPD-L1 mice. To be noted: female, B-hPD-1/hPD-L1, mouse; plasma, 50 mg/kg oral once a day, after administration on the 18th day. As to the method: Twenty-four female B-hPD-1/hPD-L1 mice aged 6-8 weeks were purchased from Biocytogen Jiangsu Gene Biotechnology Co., Ltd. The mice were randomly divided into 4 groups, 6 mice in each group. The test compounds were prepared in a vehicle containing 5% DMSO, 60% PEG400 and 35% purified water, including I-1 and 3 control molecules Example 17, Compound 14 (INCB086550), and Example 180. The compounds were administered orally at 50 mg/kg, once a day. The blood was collected alternately through the fundus venous plexus after the administration on the 18th day. The blood collection time points were 15 min, 30 min, 1 h, 2 h, 4 h, 8h, 24 h and 32h. About 0.1 mL of blood was collected in a centrifuge tube (anticoagulated with sodium heparin), and centrifuged at 5000 rpm for 5 min. Then the plasma was separated, and frozen at −20° C. for later detection. After the plasma samples were processed, the concentration of the compounds in the plasma was determined by liquid chromatography-mass spectrometry (LC-MS/MS). The pharmacokinetic parameters were calculated using Phoenix WinNonlin 7.0.

A short description of data set [2]: Tumor tissue distribution assay in MC38-PD-L1 tumor-bearing mice. Type of data set: in vivo, B-hPD-1/hPD-L1 humanized mice. As to conditions: 50 mg/kg oral once/day; for concentration at 4 h / concentration at 24 h: female, B-hPD-1/hPD-L1 humanized, mouse, tumor tissue. An excerpt:
16 B-hPD-1/hPD-L1 humanized female mice, aged 6-8 weeks were purchased from Biocytogen Jiangsu Gene Biotechnology Co., Ltd. After 1 week of adaptation, the mice were subcutaneously inoculated with MC38-PD-L1 cells at 2×10^6 cells/site. After the tumor grew to about […], the mice were divided into 4 groups, 4 mice in each group. The test compounds were formulated in a vehicle containing 5% DMSO, 60% PEG400 and 35% purified water, including I-1 and 3 control molecules Example 17, Compound 14 (INCB086550), and Example 180. The compounds were orally administered at 50 mg/kg, once/day. The blood and tumor tissue were collected 4 h and 24 h after administration on the 18th day. A certain amount of tissue was weighed, and added with phosphate-buffered saline (PBS) solution for homogenization. After the sample was processed, it was analyzed by LC-MS/MS to determine the concentration of the compound in plasma and tissue.

For data set [3], the system named is PD-1/PD-L1-mediated T cell activation inhibitory signal. The data set is described as follows: CHO-PD-L1-CD3L / Jurkat-PD-1-NFAT co-culture luciferase reporter assay. The format is cell-based. To be noted: Homo sapiens, co-culture 6 h, read-out: EC50 blocking PD-1/PD-L1-mediated T cell activation inhibitory signal. As to the method:
In order to detect the effect of the interaction between PD-1 and PD-L1 on T cell activation signals in the immune response, CHO-PD-L1-CD3L cells stably expressing human PD-L1 molecules and anti-CD3 single-chain antibody (ScFv) and Jurkat-PD-1-NFAT cells stably expressing human PD-1 molecule and NFAT reporter gene were constructed. When the two kinds of cells were co-incubated, the binding of anti-CD3ScFv on the surface of CHO cells and the membrane CD3 molecules of Jurkat cells would transmit an activation signal to Jurkat cells, but simultaneously, the binding of PD-L1 on the surface of CHO cells and PD-1 molecules on the surface of Jurkat cells would transmit an inhibitory signal inward to prevent expression of the luciferase reporter gene. When immune checkpoint antibodies or small molecule inhibitors were added, the binding of PD-1 and PD-L1 was blocked, the NFAT pathway activated by T cell activation signal mediated by cross-linking of CD3ScFv antibody and CD3 was no longer affected by the inhibitory signal, and the downstream luciferase reporter gene started to be expressed. A chemiluminescent signal proportional to reporter gene activation was detected by adding a catalytic substrate.
CHO-PD-L1-CD3L cells expressing human PD-L1 molecule and anti-CD3 single-chain antibody (ScFv) and Jurkat-PD-1-NFAT cells stably expressing human PD-1 molecule and NFAT reporter gene were independently constructed and provided by Dr. Chen Bo (KeyMed Bioscience (Chengdu) Co., Ltd.). Puromycin (Cat #540411) and Hygromycin B (Cat #V900372) for stable culture of transfected cells were purchased from Sigma, PMA (Cat #P1585) was purchased from Sigma, anti-human PD-L1 antibody (Cat #GMP-A066) was purchased from Novoprotein Company. Luciferase substrate solution (Cat #E6485) and luciferase-specific cell lysis solution 5× (Cat #E1531) were purchased from Promega. Fluorescence detection instrument Tecan (Spark 10M) was purchased from Switzerland Tecan Company.
(1) The day before the experiment, 100 μL of CHO-PD-L1-CD3L cells were inoculated in each well of a 96-well cell culture plate (about 4×10^4 cells/well) with a medium of DMEM/F12 containing 10% FBS, 8 μg/mL puromycin and 200 μg/mL hygromycin B, and cultured overnight at 37° C.
(2) The test compounds were diluted with 0.1% PBST into different concentration gradients, added into 96-well plates, and pre-incubated for 30 min. Jurkat-PD-1-NFAT cell count was adjusted to 2×10^5 cells/mL with the RPMI 1640 complete medium containing 10% FBS, […]8 μg/mL puromycin and 200 μg/mL hygromycin B. 100 ng/mL PMA (the stock solution was prepared with DMSO to a concentration of 10 mg/mL) was added to amplify T cell activation signal. 100 μL of the above Jurkat-PD-1-NFAT cells was added to each well of the 96-well plate for co-culture.
(3) When detecting the reaction, a control group was provided, including a solvent control without adding test compounds and a positive control with addition of anti-human PD-1 antibody as the experimental system. All detections were performed with duplicates.
(4) After continuous incubation at 37° C. for 6 h, 40 μL of 5× cell lysate was directly added, and mixed well. The plate was placed at room temperature for 10 min to completely lyse the cells. 50 μL of the lysed cell solution was transferred to a fluorescence detection plate, and added with 30 μL of luciferase substrate solution. The chemiluminescence detection program on the fluorescence detector was immediately selected for detection.
(5) The inhibition rate of T cell activation signal at the cellular level of the test compounds was calculated as follows: Inhibition rate of T cell activation signal (%)=(the original value of chemiluminescence in the detection well−solvent control)/(the highest original value of chemiluminescence detected in the compound detection well−solvent control)×100%. […]
For orientation: A reporter such as luciferase makes a cellular process visible.

For data set [4] the following is noted: clinical studies; cited from earlier work.
The mark [5] stands for this setting: 4 h after administration on the 18th day.
[6] abbreviates: 24 h after administration on the 18th day.

As for `Cc1c(Nc2nccc3cc(CN4CC[C@@H](O)C4)cnc23)cccc1-c1cccc(-c2nc3cc(CN4CC[C@@H](C(=O)O)C4)cc(C#N)c3o2)c1C` [Compound 14 (INCB086550)], in data set [1], the AUC(0-t) amounted to 15800 ng·h/mL, the MRT came out at 5.1 h and the half-life is 3.9 h. Besides, in data set [2] (setting [5]), the “Ratio of I-1 to control molecule (tumor tissue concentration)” value (“Ratio of I-1 to control molecule” for short) was 5.9 and the concentration at 4 h was found to be 6600 ng/g. Besides, in data set [2] (setting [6]), the “Ratio of I-1 to control molecule” value came out at 7.6 and the concentration at 24 h was determined as 3600 ng/g.

For `[2H]c1c([2H])c(NC(=O)c2nc3c(n2C)CCN(CCC24CCC(COC)(CC2)C4)C3)c(F)c(-c2c([2H])c([2H])c([2H])c(NC(=O)c3nc4c(n3C)CCN(CCC35CCC(C(=O)O)(CC3)C5)C4)c2Cl)c1[2H]` [Compound I-15, 4-(2-(2-((2-chloro-2′-fluoro-3′-(5-(2-(4-(methoxymethyl)bicyclo[2.2.1]heptane-1-yl)ethyl)-1-methyl-4,5,6,7-tetrahydro-1H-imidazo[4,5-c]pyridine-2-carboxamido)-[1,1′-biphenyl]-3-yl-4,4′,5,5′,6,6′-d6)carbamoyl)-1-methyl-1,4,6,7-tetrahydro-5H-imidazo[4,5-c]pyridin-5-yl)ethyl)bi cyclo[2.2.1]heptane-1-carboxylic acid], in data set [3], the EC50 was 18.9 nM.

In data set [1], `Cn1c(C(=O)Nc2cccc(-c3cccc(NC(=O)c4nc5c(n4C)CCN(CCC46CCC(C(=O)O)(CC4)C6)C5)c3Cl)c2Cl)nc2c1CCN(CCC13CCC(C(=O)O)(CC1)C3)C2` [Example 17] gave an exposure AUC(0-t) of 67400 ng·h/mL, an MRT of 5.8 h and a half-life of 4.2 h. For the same compound, in data set [2] (setting [5]), the “Ratio of I-1 to control molecule” value is listed as 7.8 and the concentration at 4 h stood at 5000 ng/g. Also, in data set [2] (setting [6]), the “Ratio of I-1 to control molecule” value stood at 27.2 and the concentration at 24 h is 1000 ng/g.

As for `Cn1c(C(=O)Nc2cccc(-c3cccc(NC(=O)c4nc5c(n4C)CCN(CC46CCC(C(=O)O)(CC4)C6)C5)c3Cl)c2Cl)nc2c1CCN(CCO)C2` [Example 180], in data set [1], the AUC(0-t) worked out at 33700 ng·h/mL, the mean residence time MRT came to 5.6 h and the half-life was 3.8 h. Besides, in data set [2] (setting [5]), the “Ratio of I-1 to control molecule” value is recorded as 8.7 and the concentration at 4 h is 4500 ng/g. In data set [2] (setting [6]), the “Ratio of I-1 to control molecule” value was found to be 30.2 and the concentration at 24 h turned out to be 900 ng/g.

As to atezolizumab: PD-1/PD-L1 antibody drug, the T1/2 in data set [4] is 648 h.

For nivolumab: PD-1/PD-L1 antibody drug, the T1/2 in data set [4] is 605 h.

For the compound pembrolizumab: PD-1/PD-L1 antibody drug, in data set [4], the T1/2 is 600 h.

As usually defined, the AUC(0-t) is the area under the concentration-time curve up to a stated or last time point. Read a low AUC(0-t) as less exposure. A word on the MRT: it is the average time that molecules of a dose stay in the body. A word on the half-life: it is how long it takes for the measured level to halve. Low values mean rapid decline, high ones slow decline.
